Measurements taken from article doi:10.1101/2020.03.31.018853v1 (biorxiv, 2020).

Target: T1, GtCPES (Guillardia theta, UniProt L1JFC7, M146A)
T1 sequence (L1JFC7 80-253 M146A): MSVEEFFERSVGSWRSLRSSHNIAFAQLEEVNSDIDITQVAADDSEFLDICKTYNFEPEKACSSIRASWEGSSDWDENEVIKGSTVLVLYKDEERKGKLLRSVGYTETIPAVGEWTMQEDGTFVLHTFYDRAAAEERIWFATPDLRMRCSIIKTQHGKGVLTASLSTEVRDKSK
Test: UV-Vis absorbance titration
Type: binding

**Q.** For `C/C=C1/C(=C/c2[nH]c(/C=C3N=C(/C=C4\NC(=O)C(CC)=C4C)C(C)=C\3CCC(=O)O)c(CCC(=O)O)c2C)NC(=O)[C@@H]1C` [3(E)-PCB], which Kd is on record?
**A.** The Kd was 7 ± 0.4 µM.
